What was measured:
NEK7-HiBiT protein = NEK7-HiBiT protein (Homo sapiens, UniProt Q8TDX7); assay: NEK7-HiBiT degradation assay (Nano-Glo HiBiT Lytic Assay) in HEK293 NEK7-HiBiT cells; assay type: cell-based; settings: 24 h, conc. 0.1, 1 and 10 μM tested, concentration of the table values not stated, mean of 3 technical replicates
Method in brief: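 HEK293 cells with CRISPR knock-in N-terminal HiBiT-tagged NEK7 exposed to compound for 24 h at 37 °C, 5% CO2. Residual NEK7-HiBiT was read as Nano-Glo HiBiT lytic luminescence and expressed as % of DMSO control across triplicates; compounds run at 0.1, 1 and 10 μM.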

[1] = target: [NEK7]-[compound of formula (I)]-[CRBN/DDB1] complex (Homo sapiens, UniProt Q8TDX7+Q96SW2); assay: AlphaLISA dose response ternary complex formation assay; assay type: binding; settings: 1 μM compound; normalized to maximum signal of Compound 2 (positive control) and DMSO background; read-out: Normalized AlphaLISA ternary complex average signal at 1 μM molecule
[NEK7]-[compound of formula (I)]-[CRBN/DDB1] complex, sequence (Q8TDX7 whole entry): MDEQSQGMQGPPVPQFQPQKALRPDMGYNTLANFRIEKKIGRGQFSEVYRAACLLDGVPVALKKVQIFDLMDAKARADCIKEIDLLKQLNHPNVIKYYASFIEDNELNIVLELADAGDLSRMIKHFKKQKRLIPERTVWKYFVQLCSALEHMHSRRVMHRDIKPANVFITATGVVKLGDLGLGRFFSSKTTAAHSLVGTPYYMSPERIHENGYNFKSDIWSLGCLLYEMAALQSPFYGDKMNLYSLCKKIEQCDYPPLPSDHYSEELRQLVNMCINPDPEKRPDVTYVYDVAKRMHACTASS
[NEK7]-[compound of formula (I)]-[CRBN/DDB1] complex, sequence (Q96SW2 whole entry): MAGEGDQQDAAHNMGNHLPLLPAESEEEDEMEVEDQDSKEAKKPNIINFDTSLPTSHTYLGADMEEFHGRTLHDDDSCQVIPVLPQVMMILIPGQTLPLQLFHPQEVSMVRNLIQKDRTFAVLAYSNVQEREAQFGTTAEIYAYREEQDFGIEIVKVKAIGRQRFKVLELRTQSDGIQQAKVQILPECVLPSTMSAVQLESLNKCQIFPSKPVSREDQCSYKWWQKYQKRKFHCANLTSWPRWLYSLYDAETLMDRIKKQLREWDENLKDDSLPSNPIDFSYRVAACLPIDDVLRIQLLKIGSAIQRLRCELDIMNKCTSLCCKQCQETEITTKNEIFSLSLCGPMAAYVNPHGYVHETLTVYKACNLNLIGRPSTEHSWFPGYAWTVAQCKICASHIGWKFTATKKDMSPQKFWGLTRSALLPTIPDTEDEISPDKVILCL
[NEK7]-[compound of formula (I)]-[CRBN/DDB1] complex, sequence (Q16531 whole entry partner): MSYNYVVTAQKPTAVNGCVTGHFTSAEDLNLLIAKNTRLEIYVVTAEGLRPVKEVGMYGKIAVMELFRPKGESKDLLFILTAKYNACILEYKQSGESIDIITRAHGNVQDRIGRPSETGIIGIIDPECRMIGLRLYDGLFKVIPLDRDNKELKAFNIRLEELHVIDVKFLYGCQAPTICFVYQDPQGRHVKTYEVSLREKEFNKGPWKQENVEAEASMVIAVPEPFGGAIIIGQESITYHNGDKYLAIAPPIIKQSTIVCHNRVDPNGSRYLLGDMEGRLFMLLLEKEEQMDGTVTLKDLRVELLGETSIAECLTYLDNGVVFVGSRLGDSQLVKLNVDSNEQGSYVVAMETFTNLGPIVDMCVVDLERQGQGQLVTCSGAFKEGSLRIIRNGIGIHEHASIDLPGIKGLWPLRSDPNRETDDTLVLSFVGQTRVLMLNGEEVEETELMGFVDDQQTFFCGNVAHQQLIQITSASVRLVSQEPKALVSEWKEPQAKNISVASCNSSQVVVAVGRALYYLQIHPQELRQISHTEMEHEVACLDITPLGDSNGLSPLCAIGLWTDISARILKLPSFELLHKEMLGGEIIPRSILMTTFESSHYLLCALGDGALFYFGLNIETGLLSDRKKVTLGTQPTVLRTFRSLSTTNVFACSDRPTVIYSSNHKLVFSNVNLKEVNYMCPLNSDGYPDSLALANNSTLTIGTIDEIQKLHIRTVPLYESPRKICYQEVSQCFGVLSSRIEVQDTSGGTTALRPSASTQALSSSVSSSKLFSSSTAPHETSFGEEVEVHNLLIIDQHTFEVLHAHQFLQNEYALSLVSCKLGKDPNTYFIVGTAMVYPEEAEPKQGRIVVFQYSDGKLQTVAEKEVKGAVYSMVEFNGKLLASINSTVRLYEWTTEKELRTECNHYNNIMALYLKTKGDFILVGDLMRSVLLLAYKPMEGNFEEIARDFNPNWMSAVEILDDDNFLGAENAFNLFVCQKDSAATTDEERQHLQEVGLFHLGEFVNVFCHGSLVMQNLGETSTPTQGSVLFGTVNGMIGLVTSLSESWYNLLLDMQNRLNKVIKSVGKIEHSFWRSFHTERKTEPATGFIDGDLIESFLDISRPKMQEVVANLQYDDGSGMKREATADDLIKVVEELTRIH
Method in brief: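 Biotinylated NEK7 (200 nM) on streptavidin donor beads and 6×His-CRBN/Strep-DDB1 (200 nM) on anti-His acceptor beads, each at 40 μg/ml and preincubated 30 min, then mixed and added to compound in HBS pH 7.4, 0.1% Tween-20, 1 mM DTT, 2% DMSO. After 30 min at 25 °C, AlphaLISA signal was read (ex 680/em 615 nm) and normalised to DMSO background and maximal Compound 2 signal.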

NEK7-HiBiT protein, sequence (Q8TDX7 whole entry): as the sequence (Q8TDX7 whole entry) above
NEK7-HiBiT protein, sequence (Q96SW2 whole entry, further chain): as the sequence (Q96SW2 whole entry) above
NEK7-HiBiT protein, sequence (Q16531 whole entry partner): as the sequence (Q16531 whole entry partner) above

| SMILES | Levels of NEK7-HiBiT Protein (as a % of DMSO control) (NEK7-HiBiT protein) | activation at 1 µM [1] [%] |
| --- | --- | --- |
| O=C1CCC(N2Cc3cc(-c4ccccn4)ccc3C2=O)C(=O)N1 (centres unmarked) [2(2), 3-(1-oxo-5-(pyridin-2-yl)isoindolin-2-yl)piperidine-2,6-dione] | B (Levels of NEK7-HiBiT Protein > 25% and ≤50%) | > 80 |
| Cc1c(C2CCCCN2)ccc2c1CN(C1CCC(=O)NC1=O)C2=O (centres unmarked) [Compound 19, 3-(4-methyl-1-oxo-5-(piperidin-2-yl)isoindolin-2-yl)piperidine-2,6-dione] | B (Levels of NEK7-HiBiT Protein > 25% and ≤50%) | < 10 |
| O=C1CCC(N2Cc3cc(C4CCCCN4)c(F)cc3C2=O)C(=O)N1 (centres unmarked) [Compound 23, 3-(6-fluoro-1-oxo-5-(piperidin-2-yl)isoindolin-2-yl)piperidine-2,6-dione] | B (Levels of NEK7-HiBiT Protein > 25% and ≤50%) | < 10 |
| CC1c2cc(C3CCCCN3)ccc2C(=O)N1C1CCC(=O)NC1=O (centres unmarked) [Compound 25, 3-(3-methyl-1-oxo-5-(piperidin-2-yl)isoindolin-2-yl)piperidine-2,6-dione] | A (Levels of NEK7-HiBiT Protein ≤ 25%) | > 80 |
| CC1c2cc(C3CCCCO3)ccc2C(=O)N1C1CCC(=O)NC1=O (centres unmarked) [Compound 64, 3-(3-methyl-1-oxo-5-(tetrahydro-2H-pyran-2-yl)isoindolin-2-yl)piperidine-2,6-dione] | A (Levels of NEK7-HiBiT Protein ≤ 25%) | > 80 |

The next lines start with the values.

| Levels of NEK7-HiBiT Protein (as a % of DMSO control) (NEK7-HiBiT protein) | activation at 1 µM [1] [%] | SMILES |
| --- | --- | --- |
| A (Levels of NEK7-HiBiT Protein ≤ 25%) | > 80 | O=C1CCC(N2Cc3cc(-c4ccc(-c5ccccc5)cn4)ccc3C2=O)C(=O)N1 (centres unmarked) [4(2), 3-(1-oxo-5-(5-phenylpyridin-2-yl)isoindolin-2-yl)piperidine-2,6-dione] |
| A (Levels of NEK7-HiBiT Protein ≤ 25%) | > 80 | O=C1CCC(N2Cc3cc(C4CCCCN4)ccc3C2=O)C(=O)N1 (centres unmarked) [Compound 2, 3-(1-oxo-5-(piperidin-2-yl)isoindolin-2-yl)piperidine-2,6-dione] |
